Measurements taken from patent publication EP0007672A1, “Isocyanoalkenes, process and useful intermediates for their preparation, pharmaceutical and fungicidal preparations containing those isocyanoalkenes and the use of the fungicidal preparations in agriculture” (GIST-BROCADES N.V., priority 1978, dated 1980).
In brackets after ≈: the same amount, converted by molar mass. Like-named read-outs stand apart in the source and are kept apart here. Each block holds one compound with its values, some of them ahead of it.

How the values were obtained:
Assay in all cases: MIC (Minimum Inhibitory Concentration)
Assay type in all cases: cell-based
[1] = system: Trichophyton mentagrophytus
Source text: (§1) In addition they may be used for combatting plant diseases, in particular as fungicides. A list of MIC (Minimum Inhibitory Concentration) values for a number of microorganisms is listed herebelow. The figures in the column headings refer to the compounds prepared according to the experimental examples in comparison with the spectrum of 1-[2-(2,4-dichlorophenyl)-2-{(2,4-dichlorophenyl)-methoxy} -ethyl7-1H-imidazole (better known under the name of miconazole, c.f. Merck Index 9th Ed. page 6047) or natamycin (pimaricin, c.f. Merck Index 9th Ed. page 7233).

[2] = system: Trichophyton quickeaneum; settings: read-out: MIC values
Source text: as §1

[3] = system: Trichophyton soudanese joyeux; settings: read-out: MIC values
Source text: as §1

[4] = system: Trichophyton verrucosum
Source text: as §1

[5] = system: Trichophyton rubrum
Source text: as §1

[6] = system: Trichophyton equinum
Source text: as §1

[7] = system: Trichophyton schoenleinii; settings: read-out: MIC values
Source text: as §1

[8] = system: Pasteurella multocida; settings: Pasteurella multocida, read-out: MIC values
Source text: as §1

[9] = system: Candida albicans
Source text: as §1

[10] = system: Trichophyton violoceum; settings: read-out: MIC values
Source text: as §1

[11] = system: Streptococcus haemolyticus; settings: Streptococcus, read-out: MIC values
Source text: as §1

[12] = system: Trichophyton tonsurans; settings: read-out: MIC values
Source text: as §1

[13] = read-out: MIC values, Trichophyton mentagrophytus 367-68
[14] = read-out: MIC values, Trichophyton mentagrophytus 421-67
[15] = read-out: MIC values, Trichophyton mentagrophytus A 3252
[16] = read-out: MIC values, Trichophyton mentagrophytus R 177
[17] = read-out: MIC values, Trichophyton mentagrophytus R 178
[18] = read-out: MIC values, Trichophyton verrucosum 134-66
[19] = read-out: MIC values, Trichophyton verrucosum A 2922
[20] = read-out: MIC values, Trichophyton rubrum 218-65
[21] = read-out: MIC values, Trichophyton rubrum 494-62
[22] = read-out: MIC values, Trichophyton rubrum A 810
[23] = read-out: MIC values, Trichophyton equinum 182-76
[24] = read-out: MIC values, Trichophyton equinum 441-51
[25] = read-out: MIC values, Candida albicans A 7
[26] = read-out: MIC values, Candida albicans A 3140
[27] = read-out: MIC values, Candida albicans A 3141
[28] = read-out: MIC values, Candida albicans A 3142
[29] = read-out: MIC values, Candida albicans A 3143
[30] = read-out: MIC values, Candida albicans A 3144
[31] = read-out: MIC values, Candida albicans A 3145
[32] = read-out: MIC values, Candida albicans A 3165
[33] = read-out: MIC values, Candida albicans A 3166
[34] = read-out: MIC values, Candida albicans A 3167
[35] = read-out: MIC values, Candida albicans A 3169
[36] = read-out: MIC values, Candida albicans A 3171
[37] = read-out: MIC values, Candida albicans A 3184
[38] = read-out: MIC values, Candida albicans A 3190
[39] = read-out: MIC values, Candida albicans A 3192
[40] = read-out: MIC values, Candida albicans A 3194
[41] = read-out: MIC values, Candida albicans A 3196

Compound: [C-]#[N+]C(=C1C2CC3CC(C2)CC1C3)S(=O)(=O)c1ccc(C)cc1 [Example 2, a-adamantylidene-a-(4-toluenesulphonyl) methylisocyanide]
MIC [1, 13]: > 100 µg/mL | MIC [1, 14]: 50 µg/mL (≈ 153 µM) | MIC [1, 15]: > 100 µg/mL | MIC [1, 16]: 100 µg/mL (≈ 305 µM) | MIC [1, 17]: > 100 µg/mL | MIC ([1]; read-out: MIC values, Trichophyton mentagrophytus RRL 305): 50 µg/mL (≈ 153 µM) | MIC ([2]; Trichophyton): > 100 µg/mL | MIC ([3]; Trichophyton): 50 µg/mL (≈ 153 µM) | MIC [4, 18]: 25 µg/mL (≈ 76.3 µM) | MIC [4, 19]: < 0.05 µg/mL | MIC [5, 20]: < 0.05 µg/mL | MIC [5, 21]: > 100 µg/mL | MIC [5, 22]: 50 µg/mL (≈ 153 µM) | MIC [6, 23]: 50 µg/mL (≈ 153 µM) | MIC [6, 24]: 25 µg/mL (≈ 76.3 µM) | MIC ([6]; read-out: MIC values, Trichophyton equinum 856-71): > 100 µg/mL | MIC ([7]; Trichophyton schoenleinii): 25 µg/mL (≈ 76.3 µM) | MIC [8]: > 100 µg/mL | MIC [9, 25]: 0.8 µg/mL (≈ 2.44 µM) | MIC [9, 26]: 12.5 µg/mL (≈ 38.2 µM) | MIC [9, 27]: > 100 µg/mL | MIC [9, 28]: > 100 µg/mL | MIC [9, 29]: 0.8 µg/mL (≈ 2.44 µM) | MIC [9, 30]: > 100 µg/mL | MIC [9, 31]: > 100 µg/mL | MIC [9, 32]: 50 µg/mL (≈ 153 µM) | MIC [9, 33]: 50 µg/mL (≈ 153 µM) | MIC [9, 34]: 25 µg/mL (≈ 76.3 µM) | MIC [9, 35]: 1.5 µg/mL (≈ 4.58 µM) | MIC [9, 36]: > 100 µg/mL | MIC [9, 37]: 0.8 µg/mL (≈ 2.44 µM) | MIC [9, 38]: 100 µg/mL (≈ 305 µM) | MIC [9, 39]: 1.5 µg/mL (≈ 4.58 µM) | MIC [9, 40]: > 100 µg/mL | MIC [9, 41]: > 100 µg/mL | MIC ([10]; Trichophyton): 50 µg/mL (≈ 153 µM) | MIC [11]: 50 µg/mL (≈ 153 µM)

MIC ([1]; Trichophyton mentagrophytus 367-68, read-out: MIC values): 1.5 µg/mL (≈ 6.37 µM) | MIC ([1]; Trichophyton mentagrophytus 421-67, read-out: MIC values): 1.5 µg/mL (≈ 6.37 µM) | MIC ([1]; Trichophyton mentagrophytus A 3252, read-out: MIC values): 0.8 µg/mL (≈ 3.4 µM) | MIC ([1]; Trichophyton mentagrophytus R 177, read-out: MIC values): 6 µg/mL (≈ 25.5 µM) | MIC ([1]; Trichophyton mentagrophytus R 178, read-out: MIC values): 50 µg/mL (≈ 212 µM) | MIC ([1]; Trichophyton mentagrophytus RRL 305, read-out: MIC values): 3 µg/mL (≈ 12.7 µM) | MIC ([2]; Trichophyton quickeaneum A 2040): 0.8 µg/mL (≈ 3.4 µM) | MIC ([3]; Trichophyton soudanese joyeux 440-63): 12.5 µg/mL (≈ 53.1 µM) | MIC ([5]; Trichophyton rubrum 218-65, read-out: MIC values): 0.4 µg/mL (≈ 1.7 µM) | MIC ([5]; Trichophyton rubrum 494-62, read-out: MIC values): 0.4 µg/mL (≈ 1.7 µM) | MIC ([12]; Trichophyton tonsurans 561-50): < 0.1 µg/mL | MIC ([6]; Trichophyton equinum 182-76, read-out: MIC values): 3 µg/mL (≈ 12.7 µM) | MIC ([6]; Trichophyton equinum 856-71, read-out: MIC values): 6 µg/mL (≈ 25.5 µM) | MIC ([7]; Trichophyton schoenleinii 435-63): 0.2 µg/mL (≈ 0.85 µM) | MIC ([9]; Candida albicans A 7, read-out: MIC values): 3 µg/mL (≈ 12.7 µM) | MIC ([9]; Candida albicans A 3140, read-out: MIC values): 12.5 µg/mL (≈ 53.1 µM) | MIC ([9]; Candida albicans A 3141, read-out: MIC values): 25 µg/mL (≈ 106 µM) | MIC ([9]; Candida albicans A 3142, read-out: MIC values): 25 µg/mL (≈ 106 µM) | MIC ([9]; Candida albicans A 3143, read-out: MIC values): 25 µg/mL (≈ 106 µM) | MIC ([9]; Candida albicans A 3144, read-out: MIC values): 25 µg/mL (≈ 106 µM) | MIC ([9]; Candida albicans A 3145, read-out: MIC values): 12.5 µg/mL (≈ 53.1 µM) | MIC ([9]; Candida albicans A 3165, read-out: MIC values): 12.5 µg/mL (≈ 53.1 µM) | MIC ([9]; Candida albicans A 3166, read-out: MIC values): 12.5 µg/mL (≈ 53.1 µM) | MIC ([9]; Candida albicans A 3167, read-out: MIC values): 25 µg/mL (≈ 106 µM) | MIC ([9]; Candida albicans A 3168, read-out: MIC values): 25 µg/mL (≈ 106 µM) | MIC ([9]; Candida albicans A 3169, read-out: MIC values): 25 µg/mL (≈ 106 µM) | MIC ([9]; Candida albicans A 3171, read-out: MIC values): 12.5 µg/mL (≈ 53.1 µM) | MIC ([9]; Candida albicans A 3184, read-out: MIC values): 12.5 µg/mL (≈ 53.1 µM) | MIC ([9]; Candida albicans A 3190, read-out: MIC values): 12.5 µg/mL (≈ 53.1 µM) | MIC ([9]; Candida albicans A 3191, read-out: MIC values): 25 µg/mL (≈ 106 µM) | MIC ([9]; Candida albicans A 3192, read-out: MIC values): 25 µg/mL (≈ 106 µM) | MIC ([9]; Candida albicans A 3194, read-out: MIC values): 25 µg/mL (≈ 106 µM) | MIC ([9]; Candida albicans A 3196, read-out: MIC values): 25 µg/mL (≈ 106 µM) | MIC ([10]; Trichophyton violoceum 442-62): 0.1 µg/mL (≈ 0.425 µM)
Compound: [C-]#[N+]C(=C(C)C)S(=O)(=O)c1ccc(C)cc1 [Example 5, 1-isocyano-2-methyl-1-(4-toluenesulphonyl)-1-propene]

Compound: [C-]#[N+]C(C1=CCCCCCC1)S(=O)(=O)c1ccc(C)cc1 (stereo not drawn) [Example 20, α-(cycloocten-1-yl)-α-(4-toluenesulphonyl) methylisocyanide]
MIC [1, 13]: 50 µg/mL (≈ 165 µM) | MIC [1, 14]: 100 µg/mL (≈ 330 µM) | MIC [1, 15]: 25 µg/mL (≈ 82.4 µM) | MIC [1, 16]: 50 µg/mL (≈ 165 µM) | MIC [1, 17]: > 100 µg/mL | MIC ([2]; Trichophyton): 25 µg/mL (≈ 82.4 µM) | MIC [4, 18]: 6 µg/mL (≈ 19.8 µM) | MIC [4, 19]: 6 µg/mL (≈ 19.8 µM) | MIC [5, 20]: 12.5 µg/mL (≈ 41.2 µM) | MIC [5, 21]: 12.5 µg/mL (≈ 41.2 µM) | MIC [5, 22]: 100 µg/mL (≈ 330 µM) | MIC ([12]; Trichophyton tonsurans): 0.75 µg/mL (≈ 2.47 µM) | MIC [6, 23]: 50 µg/mL (≈ 165 µM) | MIC [6, 24]: 12.5 µg/mL (≈ 41.2 µM) | MIC ([7]; Trichophyton schoenleinii): 12.5 µg/mL (≈ 41.2 µM) | MIC [8]: 50 µg/mL (≈ 165 µM) | MIC [9, 25]: 6 µg/mL (≈ 19.8 µM) | MIC [9, 26]: 6 µg/mL (≈ 19.8 µM) | MIC [9, 27]: 6 µg/mL (≈ 19.8 µM) | MIC [9, 28]: 6 µg/mL (≈ 19.8 µM) | MIC [9, 29]: 6 µg/mL (≈ 19.8 µM) | MIC [9, 30]: 6 µg/mL (≈ 19.8 µM) | MIC [9, 31]: 6 µg/mL (≈ 19.8 µM) | MIC [9, 32]: 6 µg/mL (≈ 19.8 µM) | MIC [9, 33]: 6 µg/mL (≈ 19.8 µM) | MIC [9, 34]: 6 µg/mL (≈ 19.8 µM) | MIC ([9]; read-out: MIC values, Candida albicans A 3168): 6 µg/mL (≈ 19.8 µM) | MIC [9, 35]: 6 µg/mL (≈ 19.8 µM) | MIC [9, 36]: 6 µg/mL (≈ 19.8 µM) | MIC [9, 37]: 6 µg/mL (≈ 19.8 µM) | MIC [9, 38]: 6 µg/mL (≈ 19.8 µM) | MIC ([9]; read-out: MIC values, Candida albicans A 3191): 6 µg/mL (≈ 19.8 µM) | MIC [9, 39]: 6 µg/mL (≈ 19.8 µM) | MIC [9, 40]: 3 µg/mL (≈ 9.89 µM) | MIC [9, 41]: 6 µg/mL (≈ 19.8 µM) | MIC ([10]; Trichophyton): 12.5 µg/mL (≈ 41.2 µM) | MIC [11]: 12.5 µg/mL (≈ 41.2 µM)
